Results published in patent US20070208166A1, “Tao Kinase Modulators And Method Of Use” (Exelixis, Inc., priority 2003, published 2007).

What was measured:
Assay type in all cases: biochemical
[1] = target: T1, TAO (Homo sapiens, UniProt Q9UL54); experiment: TAO Luciferase-Coupled Chemiluminescent Kinase assay (LCCA); conditions: 2 μM ATP, 10 μM MBP, 12 nM TAO, 2 hours; read-out: TAO inhibition IC50
T1 sequence (Q9UL54 1-1235): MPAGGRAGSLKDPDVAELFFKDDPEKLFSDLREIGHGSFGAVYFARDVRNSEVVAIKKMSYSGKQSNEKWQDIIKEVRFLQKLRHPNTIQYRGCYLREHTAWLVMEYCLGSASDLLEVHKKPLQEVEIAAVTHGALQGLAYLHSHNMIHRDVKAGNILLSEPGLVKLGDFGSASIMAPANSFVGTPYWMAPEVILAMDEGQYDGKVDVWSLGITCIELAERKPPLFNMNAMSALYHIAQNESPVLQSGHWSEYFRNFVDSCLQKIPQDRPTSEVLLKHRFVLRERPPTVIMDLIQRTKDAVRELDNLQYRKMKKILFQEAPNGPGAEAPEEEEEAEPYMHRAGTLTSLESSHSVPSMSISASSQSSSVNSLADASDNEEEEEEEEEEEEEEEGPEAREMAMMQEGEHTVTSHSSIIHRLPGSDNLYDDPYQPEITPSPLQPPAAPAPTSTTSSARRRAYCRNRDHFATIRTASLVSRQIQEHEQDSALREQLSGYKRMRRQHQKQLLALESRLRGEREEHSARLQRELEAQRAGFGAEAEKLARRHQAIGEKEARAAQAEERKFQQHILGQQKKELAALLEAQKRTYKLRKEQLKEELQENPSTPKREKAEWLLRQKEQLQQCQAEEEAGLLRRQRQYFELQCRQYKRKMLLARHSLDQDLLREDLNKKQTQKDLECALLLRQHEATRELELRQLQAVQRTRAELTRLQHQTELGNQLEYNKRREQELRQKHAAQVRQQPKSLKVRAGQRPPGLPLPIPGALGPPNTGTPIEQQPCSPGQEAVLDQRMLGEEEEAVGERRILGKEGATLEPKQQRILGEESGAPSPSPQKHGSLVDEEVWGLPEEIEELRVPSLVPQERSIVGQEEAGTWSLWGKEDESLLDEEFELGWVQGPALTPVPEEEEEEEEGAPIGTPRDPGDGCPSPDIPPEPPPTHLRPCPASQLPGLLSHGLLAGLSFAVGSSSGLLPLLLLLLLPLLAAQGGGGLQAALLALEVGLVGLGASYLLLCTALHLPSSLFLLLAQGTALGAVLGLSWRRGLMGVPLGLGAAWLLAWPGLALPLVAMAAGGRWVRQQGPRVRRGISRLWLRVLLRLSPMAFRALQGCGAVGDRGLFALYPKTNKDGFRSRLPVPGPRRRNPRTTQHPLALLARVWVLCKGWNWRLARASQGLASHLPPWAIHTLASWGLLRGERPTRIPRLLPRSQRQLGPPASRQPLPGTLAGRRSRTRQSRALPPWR
Protocol: (§1) Kinase activity and compound inhibition are investigated using one or more of the three assay formats described below. The ATP concentrations for each assay are selected to be close to the Michaelis-Menten constant (KM) for each individual kinase. Dose-response experiments are performed at 10 different inhibitor concentrations in a 384-well plate format. The data are fitted to four-parameter equation (2) below; where Y is the observed signal, X is the inhibitor concentration, Min is the background signal in the absence of enzyme (0% enzyme activity), Max is the signal in the absence of inhibitor (100% enzyme activity), IC50 is the inhibitor concentration at 50% enzyme inhibition and H represents the empirical Hill's slope to measure the cooperativity. Typically H is close to unity. Y=Min+(Max−Min)/(1+(X/IC50)ˆH) Equation (2) KIAA 1361 Assay: […]
(§2) TAO biochemical activity was assessed using a Luciferase-Coupled Chemiluminescent Kinase assay (LCCA) format. Kinase activity was measured as the percent ATP remaining following the kinase reaction. Remaining ATP was detected by luciferase-luciferin-coupled chemiluminescence. Specifically, the reaction was initiated by mixing test compounds, 2 μM ATP, 10 μM MBP and 12 nM TAO (baculovirus expressed human KIAA 1361 kinase domain 2-322) in a 20 uL assay buffer (20 mM Tris-HCL pH7.5, 10 mM MgCl2, 0.02% Triton X-100, 100 mM DTT, 2 mM MnCl2). The mixture is incubated at ambient temperature for 2 hours after which 20 uL luciferase-luciferin mix is added and the chemiluminescent signal read using a Wallac Victor^2 reader. The luciferase-luciferin mix consists of 50 mM BEPES, pH 7.8, 8.5 ug/mL oxalic acid (pH 7.8), 5 (or 50) mM DTT, 0.4% Triton X-100, 0.25 mg/nL coenzyme A, 63 uM AMP, 28 ug/mL luciferin and 40,000 units of light/mL luciferase.

[2] = target: T2, KIAA 1361 (baculovirus expressed human KIAA 1361 kinase domain 2-322) (Homo sapiens, UniProt Q7L7X3); experiment: KIAA 1361 Luciferase-Coupled Chemiluminescent Kinase assay (LCCA); conditions: 2 μM ATP, 10 μM MBP, 12 nM KIAA 1361, 2 hours; read-out: KIAA1361 inhibition IC50
T2 construct: human KIAA 1361 kinase domain 2-322; made in house
T2 sequence (Q7L7X3 2-322): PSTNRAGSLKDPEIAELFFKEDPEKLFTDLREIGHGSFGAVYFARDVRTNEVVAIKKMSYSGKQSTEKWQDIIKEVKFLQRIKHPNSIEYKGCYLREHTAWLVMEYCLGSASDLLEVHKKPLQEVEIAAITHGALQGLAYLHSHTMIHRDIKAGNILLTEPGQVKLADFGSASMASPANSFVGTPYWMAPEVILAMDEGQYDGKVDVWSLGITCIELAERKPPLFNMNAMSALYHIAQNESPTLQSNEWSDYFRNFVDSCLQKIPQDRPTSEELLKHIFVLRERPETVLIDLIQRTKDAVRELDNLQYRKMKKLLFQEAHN
Protocol: as §1
as §2, with “KIAA 1361” for “TAO”, “HEPES,” for “BEPES,”, “mg/mL” for “mg/nL”

[3] = target: T3, JIK (Homo sapiens, UniProt Q9H2K8); experiment: JIK Luciferase-Coupled Chemiluminescent Kinase assay (LCCA); conditions: 2 μM ATP, 10 μM MBP, 6 nM JIK, 2 hours; read-out: JIK inhibition IC50
T3 construct: 6 nM JIK (baculovirus expressed human KIAA 1361 kinase domain2-318); made in house
T3 sequence (Q9H2K8 2-318): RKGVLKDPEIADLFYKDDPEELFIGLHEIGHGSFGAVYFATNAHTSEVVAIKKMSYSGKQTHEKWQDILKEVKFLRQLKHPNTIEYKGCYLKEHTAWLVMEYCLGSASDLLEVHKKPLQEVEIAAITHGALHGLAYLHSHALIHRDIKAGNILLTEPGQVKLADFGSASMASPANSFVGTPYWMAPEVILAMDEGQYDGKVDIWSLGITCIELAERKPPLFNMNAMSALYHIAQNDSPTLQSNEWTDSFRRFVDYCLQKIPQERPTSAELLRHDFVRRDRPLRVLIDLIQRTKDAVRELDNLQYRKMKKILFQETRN
Protocol: as §1
as §2, with “JIK” for “TAO”, “6” for “12”, “domain2-318)” for “domain 2-322)”, “HEPES,” for “BEPES,”, “mg/mL” for “mg/nL”

Row | Structure (SMILES) | IC50 [1] [µM] | IC50 [2] [µM] | IC50 [3] [µM]
1 | CCCCCOc1ccc(C(=O)NCC(=O)NC2CCCc3ccccc32)cc1 (stereo not drawn) [Entry 1, N-[2-oxo-2-(1,2,3,4-tetrahydronaphthalen-1-ylamino)ethyl]-4-(pentyloxy)benzamide] | 0.05 to 0.5 | < 0.05 | < 0.05
2 | O=C(CNC(=O)c1ccc(C2CCCCC2)cc1)NC1CCCc2ccccc21 (stereo not drawn) [Entry 50, 4-cyclohexyl-N-[2-oxo-2-(1,2,3,4-tetrahydronaphthalen-1-ylamino)ethyl]benzamide] | 0.05 to 0.5 | 0.05 to 0.5 | 0.05 to 0.5
3 | O=C(CNC(=O)c1ccc2c(c1)CCCC2)NC1CCCc2ccccc21 (stereo not drawn) [Entry 82, N-[2-oxo-2-(1,2,3,4-tetrahydronaphthalen-1-ylamino)ethyl]-5,6,7,8-tetrahydronaphthalene-2-carboxamide] | > 5 | > 5 | 0.5 to 5
4 | COc1ccc2nc(NC(=O)CNC(=O)Cn3cnc4sc(C)c(C)c4c3=O)sc2c1 [Entry 40, N˜2˜-[(5,6-dimethyl-4-oxothieno[2,3-d]pyrimidin-3(4H)-yl)acetyl]-N-[6-(methyloxy)-1,3-benzothiazol-2-yl]glycinamide] | 0.5 to 5 | 0.05 to 0.5 | 0.05 to 0.5
5 | CCc1ccc(-c2ccc(C(=O)NCC(=O)N[C@@H]3CCCc4ccccc43)cc2)cc1 [Entry 76, 4′-ethyl-N-{2-oxo-2-[(1R)-1,2,3,4-tetrahydronaphthalen-1-ylamino]ethyl}biphenyl-4-carboxamide] | > 5 | > 5 | > 5
6 | COc1cccc(OCC(=O)NCC(=O)NC2CCCc3ccccc32)c1 (stereo not drawn) [Entry 28, N˜2˜-({[3-(methyloxy)phenyl]oxy}acetyl)-N-(1,2,3,4-tetrahydronaphthalen-1-yl)glycinamide] | 0.5 to 5 | 0.5 to 5 | 0.05 to 0.5
7 | COc1ccc(/C=C/C(=O)N[C@@H](Cc2c[nH]c3ccccc23)C(=O)NC2CCCc3ccccc32)cc1OC (stereo partly drawn) [Entry 17, Nalpha-{(2E)-3-[3,4-bis(methyloxy)phenyl]prop-2-enoyl}-N-(1,2,3,4-tetrahydronaphthalen-1-yl)tryptophanamide] | 0.5 to 5 | 0.05 to 0.5 | 0.05 to 0.5
8 | CCc1ccc(-c2ccc(C(=O)NCC(=O)NCc3ccc(Cl)c(Cl)c3)cc2)cc1 [Entry 54, N-(2-{[(3,4-dichlorophenyl)methyl]amino}-2-oxoethyl)-4′-ethylbiphenyl-4-carboxamide] | > 5 | > 5 | > 5
9 | COc1ccc2nc(NC(=O)CCCNC(=O)Cn3cnc4sc5c(c4c3=O)CCCC5)sc2c1 [Entry 23, N-[6-(methyloxy)-1,3-benzothiazol-2-yl]-4-{[(4-oxo-5,6,7,8-tetrahydro[1]benzothieno[2,3-d]pyrimidin-3(4H)-yl)acetyl]amino}butanamide] | 0.5 to 5 | 0.05 to 0.5 | 0.05 to 0.5

Next, values leading:

Row | IC50 [1] [µM] | IC50 [2] [µM] | IC50 [3] [µM] | Structure (SMILES)
10 | > 5 | 0.5 to 5 | 0.05 to 0.5 | CCc1ccc(-c2ccc(C(=O)NCC(=O)NC(CC)c3ccccc3)cc2)cc1 (stereo not drawn) [Entry 83, 4′-ethyl-N-{2-oxo-2-[(1-phenylpropyl)amino]ethyl}biphenyl-4-carboxamide]
11 | > 5 | > 5 | > 5 | COc1ccc2nc(NC(=O)CNC(=O)CCNC(=O)c3ccccc3)sc2c1 [Entry 85, N-(phenylcarbonyl)-beta-alanyl-N-[6-(methyloxy)-1,3-benzothiazol-2-yl]glycinamide]
12 | > 5 | > 5 | > 5 | O=C(CCN1CCCCC1)NCC(=O)NC1CCCc2ccccc21 (stereo not drawn) [Entry 88, N-[2-oxo-2-(1,2,3,4-tetrahydronaphthalen-1-ylamino)ethyl]-3-piperidin-1-ylpropanamide]
13 | > 5 | > 5 | 0.5 to 5 | CCc1ccc(-c2ccc(C(=O)NCC(=O)NC3CN(C(=O)OC(C)(C)C)Cc4ccccc43)cc2)cc1 (stereo not drawn) [Entry 95, 1,1-dimethylethyl 4-({N-[(4′-ethylbiphenyl-4-yl)carbonyl]glycyl}amino)-3,4-dihydroisoquinoline-2(1H)-carboxylate]
